Measurements published in US12043599B2, “Herbicidal compounds” (SYNGENTA PARTICIPATIONS AG, priority 2018, dated 2024).

What was measured:
Type in all cases: in vivo
Details in all cases: 250 g/h, evaluated after 13 days
Lolium perenne (LOLPE) [1] = test: Pre-emergence herbicidal glasshouse test, percentage damage
In short: (§1)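 Spray: 250 g/h, aqueous acetone/water 50:50 + 0.5% Tween 20; pre-em 1 d after sowing, post-em at 8 d. Glasshouse 24/16 °C, 14 h light, 65% RH, watered twice daily. Read % damage at 13 d, scored 1–5 (5=80-100%).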

Setaria faberi (SETFA) [2] = test: as above
In short: as §1

[3] = tested on: Echinochloa crus-galli (ECHCG); test: as above
In short: as §1

[4] = tested on: Alopecurus myosuroides (ALOMY); test: as above
In short: as §1

Avena fatua (AVEFA) [5] = test: as above
In short: as §1

Lolium perenne (LOLPE) [6] = test: Post-emergence herbicidal glasshouse test, percentage damage
In short: as §1

[7] = tested on: Echinochloa crus-galli (ECHCG); test: as above
In short: as §1

[8] = tested on: Alopecurus myosuroides (ALOMY); test: as above
In short: as §1

Avena fatua (AVEFA) [9] = test: as above
In short: as §1

Setaria faberi (SETFA) [10] = test: as above
In short: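 Percentage damage was scored 13 days after treatment on a five-point scale (1=0-19% to 5=80-100%). Treatments were post-emergence sprays on 8-day-old wheat, barley and SETFA plants in a glasshouse (24/16 °C day/night, 14 h light, 65% humidity), using acetone/water 50:50 with 0.5% Tween 20 at the stated rates. Wheat additionally received cloquintocet-mexyl safener at 50 g/ha.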

Row | SMILES | LOLPE PRE percentage damage (five point scale) (Lolium perenne (LOLPE) [1]) | SETFA PRE percentage damage (five point scale) (Setaria faberi (SETFA) [2]) | ECHCG PRE percentage damage (five point scale) [3] | ALOMY PRE percentage damage (five point scale) [4] | AVEFA PRE percentage damage (five point scale) (Avena fatua (AVEFA) [5]) | LOLPE POST percentage damage (five point scale) (Lolium perenne (LOLPE) [6]) | ECHCG POST percentage damage (five point scale) [7] | ALOMY POST percentage damage (five point scale) [8] | AVEFA POST percentage damage (five point scale) (Avena fatua (AVEFA) [9]) | SETFA POST percentage damage (five point scale) (Setaria faberi (SETFA) [10])
1 | CC#Cc1cc(C)c(C2C(=O)CC3(CCN(C(=O)NC(=O)c4ccccc4)CC3)CC2=O)c(C)c1 [Compound A166] | 5 (5=80-100%) | 5 (5=80-100%) | 4 (4=60-79%) | 5 (5=80-100%) | 4 (4=60-79%) | 5 (5=80-100%) | 5 (5=80-100%) | 5 (5=80-100%) | 5 (5=80-100%) | 5 (5=80-100%)
2 | CC#Cc1cc(C)c(C2C(=O)CC3(CCN(C(=O)Cc4ccncn4)CC3)CC2=O)c(C)c1 [Compound A101] | 5 (5=80-100%) | 5 (5=80-100%) | 5 (5=80-100%) | 4 (4=60-79%) | 4 (4=60-79%) | 5 (5=80-100%) | 5 (5=80-100%) | 5 (5=80-100%) | 5 (5=80-100%) | 5 (5=80-100%)
3 | CC#Cc1cc(C)c(C2=C(OC(=O)C3CCC3)CC3(CCN(C(=O)C4CCC4)CC3)CC2=O)c(C)c1 [Compound P3] | 5 (5=80-100%) | 5 (5=80-100%) | 5 (5=80-100%) | 5 (5=80-100%) | 5 (5=80-100%) | 5 (5=80-100%) | 5 (5=80-100%) | 5 (5=80-100%) | 5 (5=80-100%) | 5 (5=80-100%)
4 | CC#Cc1cc(C)c(C2C(=O)CC3(CCN(C(=O)NC(=O)c4ncccc4F)CC3)CC2=O)c(C)c1 [Compound A163] | 4 (4=60-79%) | 5 (5=80-100%) | 5 (5=80-100%) | 0 | 5 (5=80-100%) | 5 (5=80-100%) | 5 (5=80-100%) | 5 (5=80-100%) | 5 (5=80-100%) | 5 (5=80-100%)
5 | CC#Cc1cc(C)c(C2=C(OC(=O)c3ccncc3)CC3(CCN(C(=O)c4ccncc4)CC3)CC2=O)c(C)c1 [Compound P4] | 5 (5=80-100%) | 5 (5=80-100%) | 5 (5=80-100%) | 5 (5=80-100%) | 4 (4=60-79%) | 5 (5=80-100%) | 5 (5=80-100%) | 5 (5=80-100%) | 5 (5=80-100%) | 5 (5=80-100%)
6 | CC#Cc1cc(C)c(C2=C(OC(=O)C(C)(C)C)CC3(CCN(C(=O)N(C)C(=O)C(C)(C)C)CC3)CC2=O)c(C)c1 [Compound P54] | 5 (5=80-100%) | 5 (5=80-100%) | 5 (5=80-100%) | 4 (4=60-79%) | 4 (4=60-79%) | 5 (5=80-100%) | 5 (5=80-100%) | 5 (5=80-100%) | 4 (4=60-79%) | 5 (5=80-100%)
7 | CC#Cc1cc(C)c(C2=C(OC(=O)OC)CC3(CCN(S(=O)(=O)C(F)(F)F)CC3)CC2=O)c(C)c1 [Compound P11] | 5 (5=80-100%) | 5 (5=80-100%) | 5 (5=80-100%) | 5 (5=80-100%) | 3 (3=40-59%) | 4 (4=60-79%) | 5 (5=80-100%) | 5 (5=80-100%) | 5 (5=80-100%) | 5 (5=80-100%)
8 | CC#Cc1cc(C)c(C2=C(OC(=O)OC)CC3(CCN(C(=O)C(C)(C)C#N)CC3)CC2=O)c(C)c1 [Compound P27] | 5 (5=80-100%) | 5 (5=80-100%) | 5 (5=80-100%) | 5 (5=80-100%) | 5 (5=80-100%) | 5 (5=80-100%) | 5 (5=80-100%) | 5 (5=80-100%) | 5 (5=80-100%) | 5 (5=80-100%)
9 | CC#Cc1cc(C)c(C2C(=O)CC3(CCN(C(=O)c4ccc(C(F)(F)F)cn4)CC3)CC2=O)c(C)c1 [Compound A89] | 5 (5=80-100%) | 5 (5=80-100%) | 5 (5=80-100%) | 5 (5=80-100%) | 5 (5=80-100%) | 5 (5=80-100%) | 5 (5=80-100%) | 5 (5=80-100%) | 5 (5=80-100%) | 5 (5=80-100%)
10 | CC#Cc1cc(C)c(C2C(=O)CC3(CCN(C(=O)Nc4ccccn4)CC3)CC2=O)c(C)c1 [Compound A41] | 5 (5=80-100%) | 5 (5=80-100%) | 5 (5=80-100%) | 4 (4=60-79%) | 4 (4=60-79%) | 5 (5=80-100%) | 5 (5=80-100%) | 4 (4=60-79%) | 5 (5=80-100%) | 5 (5=80-100%)
11 | CC#Cc1cc(C)c(C2C(=O)CC3(CCN(C(=O)c4ncccn4)CC3)CC2=O)c(C)c1 [Compound A19] | 5 (5=80-100%) | 5 (5=80-100%) | 5 (5=80-100%) | 5 (5=80-100%) | 5 (5=80-100%) | 5 (5=80-100%) | 5 (5=80-100%) | 5 (5=80-100%) | 5 (5=80-100%) | 5 (5=80-100%)
12 | CC#Cc1cc(C)c(C2=C(OC(=O)OC)CC3(CCN(C(=O)COCC)CC3)CC2=O)c(C)c1 [Compound P51] | 5 (5=80-100%) | 5 (5=80-100%) | 5 (5=80-100%) | 5 (5=80-100%) | 5 (5=80-100%) | 5 (5=80-100%) | 5 (5=80-100%) | 5 (5=80-100%) | 5 (5=80-100%) | 5 (5=80-100%)
13 | CC#Cc1cc(C)c(C2C(=O)CC3(CCN(C(=O)C4CC4)CC3)CC2=O)c(OC)c1 [Compound A78] | 5 (5=80-100%) | 5 (5=80-100%) | 5 (5=80-100%) | 5 (5=80-100%) | 5 (5=80-100%) | 5 (5=80-100%) | 5 (5=80-100%) | 5 (5=80-100%) | 5 (5=80-100%) | 5 (5=80-100%)
14 | CC#Cc1cc(C)c(C2C(=O)CC3(CCN(C(=O)Cc4cnccn4)CC3)CC2=O)c(C)c1 [Compound A104] | 5 (5=80-100%) | 5 (5=80-100%) | 5 (5=80-100%) | 4 (4=60-79%) | 5 (5=80-100%) | 5 (5=80-100%) | 5 (5=80-100%) | 5 (5=80-100%) | 5 (5=80-100%) | 5 (5=80-100%)
